# US20170035791A1, “COMBINATION OF BETA-GLUCOSYLCERAMIDE AND POLYETHOXYLATED CASTOR OIL AND OTHER ADJUVANTS FOR CONTROLING BLOOD SUGAR LEVELS, IMMUNOPROTECTION AND HEPATOPROTECTION” (NATURAL SHIELD ISRAEL 2016 LTD, priority 2014, published 2017)
# Assays:
# C57B1/6 mice [1] = assay: Blood sugar AUC in mice after oral Coca Cola with GC and/or CE add-on; type: in vivo; settings: Coca Cola + add-on 350 μl/mouse by gavage, glucose at 0, 15, 30 min, Coca Cola alone 4785 ± 208
# Protocol: Male C57B1/6 mice (11-12 weeks old) were obtained from Harlan Laboratories (Jerusalem, Israel) and maintained in the Animal Core of the Hadassah-Hebrew University Medical School. All mice were administered standard laboratory chow and water ad libitum and kept in a 12-hour light/dark cycle. SSBs (Coca Cola or orange flavored soda) including additives GC and/or CE were orally administered in a volume of 300-350 μl per mouse by gavage. The animal experiments were carried out according to the guidelines of the Hebrew University-Hadassah Institutional Committee for Care and Use of Laboratory Animals and with the committee's approval. […]
# To evaluate the ability of GC to control blood sugar levels during consumption of a high glucose beverage, the inventors examined the effect of GC alone and of GC with CE combination, on mice consuming various high sugar soft drinks. […] Glucose levels were measured at 0, 15, and 30 min after Coca Cola administration.
# To further evaluate the effect of C:E on blood sugar levels following consumption of Coca Cola, the inventors performed the experiment in Table 2, including group A receiving orally Coca Cola +C:E (350 μl/mouse by gavage) and group B receiving Coca Cola only (300 μl/mouse by gavage). Glucose levels were measured at 0, 15, and 30 min after Coca Cola administration.
# ConA mouse model = assay: Concanavalin A (ConA) induced immune-mediated hepatitis, serum ALT and AST; type: in vivo, mice; settings: ConA 0.5 mg/mouse i.v., oral GC 3 mg/mouse or C:E 30 μl/mouse, 15 hours following ConA
# Protocol: Concanavalin A solution (ConA; purchased from MP Biomedicals, USA) consisted of 2 mg ConA in 1 ml distilled water. Mice were intravenously (IV) injected with 250 μl ConA solution (0.5 mg/mouse).
# (§1) Mice were tested for serum alanine transaminase (ALT) and aspartate aminotransferase (AST) at 24 hours after acetaminophen administration. Serum AST and ALT levels were measured by an automatic analyzer.
# The inventors next examined the effect of the combination of GC and C:E on the immune-mediated hepatitis in Con A mouse model. Details on the relevant experimental procedures are given above in experimental procedures. In brief, mice were injected i.v. with 250 μl ConA (0.5 mg/mouse) for 15 hrs prior to oral treatments, including C:E: ethanol 1:1 solution administered (30 μl/mouse); GC with CE as 100 mg GC dissolved in 1 ml C:E or GC in ethanol as 100 mg GC dissolved in 1 ml ethanol abs. administered (3 mg/mouse); control as PBS administered (30 μl/mouse).
# C57B1/6 mice [2] = assay: Glucose tolerance test (GTT) in mice after Coca Cola with GC in C:E, GC in ethanol or C:E (Table 5, FIG. 5); type: in vivo; settings: Coca Cola + add-on
# Protocol: Male C57B1/6 mice (11-12 weeks old) were obtained from Harlan Laboratories (Jerusalem, Israel) and maintained in the Animal Core of the Hadassah-Hebrew University Medical School. All mice were administered standard laboratory chow and water ad libitum and kept in a 12-hour light/dark cycle. SSBs (Coca Cola or orange flavored soda) including additives GC and/or CE were orally administered in a volume of 300-350 μl per mouse by gavage. The animal experiments were carried out according to the guidelines of the Hebrew University-Hadassah Institutional Committee for Care and Use of Laboratory Animals and with the committee's approval.
# Beta-glucosylceramide (GC) solution consisted of 60 mg GC (purchased from Avanti Polar Lipids; Alabaster, Ala., USA) dissolved in 1 ml mixture of 30% Cremophor EL (Sigma, Rehovot, Israel) and ethanol (1:1; CE) or ethanol alone. These served basis for preparation of SSBs containing GC and/or CE, including 1800 μl Coca Cola or other SSB and 400 μl GC in CE or ethanol or CE alone.
# Mice undergo a glucose tolerance test on day 60. Glucose is administered orally (1 g per kg). Serum glucose measurements is performed on tail-vein blood every fifteen minutes for three hours. Glucose levels are measured by a standard glucometer. […]
# [3] = system: alcohol induced liver damage mouse model; assay: Alcohol induced liver damage in a mouse model, ALT; type: in vivo; settings: mice, alcohol 6 gr/kg by gavage with 6 microgram GC; after 16 hours; EtOH alone 414, naive 28
# Protocol: The inventors further characterized the ameliorating effect of the GC—the alcohol induced liver damage in a mouse model. Table 9 summarizes the relevant experimental groups, including group A of naïve mice; group B receiving alcohol 6 gr/kg-300 μl of 70% Ethanol per mouse/gavage i.e. 3500 μl EtOH Abs.+1500 μl sterile water (Ethanol is equal to 6 gr/kg for 27.5 gr mouse body weight).; Group C receiving 6 microgram of GC with alcohol. Mice were sacrificed after 16 hours and the level of liver enzymes was evaluated.
# human subject = assay: Blood sugar levels in a human subject after drinking Coca Cola with GC or GC with CE add-ons; type: in vivo; settings: 500 ml Coca Cola with 28 mg GC add-on
# Protocol: A human subject healthy person was monitored for blood sugar levels for 2 hours every 15 minutes following an overnight fast and drinking of 500 ml of Coca Cola alone or Coca Cola with GC or GC with CE add-ons.
# [4] = system: APAP-mediated liver toxicity in male adult mice; assay: Acetaminophen (APAP) mediated liver toxicity, serum ALT; type: in vivo; settings: APAP 4.6 mg/mouse; oral treatment 1 hour after APAP, GC 3 mg/mouse or C:E 30 μl/mouse; 24 hours after APAP; control 15612
# Protocol: Acetaminophen powder (APAP; was purchased from Sigma, cat. # A7085), was dissolved in a mixture of 30% Cremophor EL (Sigma, Rehovot, Israel) and ethanol (1:1) in DDW (Di distilled water).
# as §1
# APAP-mediated liver toxicity was induced in male adult mice fasted overnight and 2 hours after APAP administration. APAP was i.v. injected at the concentration of 4.6 mg/mouse. Various treatments, GC or C:E alone, GC with C:E and controls, were administered 1 hour after APAP injection. For various oral treatments, C:E: Cremophor:ethanol 1:1 solution was administered (30 μl/mouse); GC with CE: 100 mg GC dissolved in 1 ml C:E or GC in ethanol: 100 mg GC dissolved in 1 ml Ethanol Abs. were administered (3 mg/mouse); Control:PBS administered (30 μl/mouse).
# All mice were sacrificed 24 hours after APAP administration and serum levels of ALT were measured.
substance,measurement,setting,value
Beta-glucosylceramide [GC],AUC 30 minutes (blood sugar levels),C57B1/6 mice [1],4381.25 ± 320
same,AST (serum),ConA mouse model; control 8807,2231
same,ALT (serum),ConA mouse model; control 8887,1875
same,"AUC at 30 minutes, effect compared to controls (FIG. 5B)",C57B1/6 mice [2],significant
same,ALT levees,[3],73
same,Glucose,human subject; time 15 min,128 mg %
same,Glucose,human subject; time 30 min,135 mg %
same,Glucose,human subject; time 45 min,152 mg %
same,Glucose,human subject; time 60 min,132 mg %
same,Glucose,human subject; time 75 min,124 mg %
same,Glucose,human subject; time 90 min,124 mg %
same,Glucose,human subject; time 105 min,96 mg %
same,Glucose,human subject; time 120 min,96 mg %
same,Glucose,"human subject; overnight fast, time 0 min",95 mg %
same,ALT (serum),[4],9290
